Measured values as given in ChEMBL document CHEMBL1201862, “PubChem BioAssay data set” (2004).
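Test compounds were applied to cells in 96-well plates for 48 hours at 5 doses. GI50 marks 50% less growth.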 Active and inactive are the calls of the source. Rule as the data show it: active = GI50 up to about 1.1 µM and inactive = higher.

Key:
Assay in all cases: NCI anticancer screen, dose series, 48 h
SNB-78 = test system: SNB-78
DMS-273 = test system: DMS-273
DLD-1 = test system: DLD-1
XF498 = test system: XF498
DMS-114 = test system: DMS-114
HOP-18 = test system: HOP-18
KM-20L2 = test system: KM-20L2
RXF 631 = test system: RXF 631
LXFL 529 = test system: LXFL 529

SMILES | GI50 (SNB-78) | GI50 (DMS-273) | GI50 (DLD-1) | GI50 (XF498) | GI50 (DMS-114) | GI50 (HOP-18) | GI50 (KM-20L2) | GI50 (RXF 631) | GI50 (LXFL 529)
COc1ccc(C(=O)NCCC2=CCCCC2)cc1 | > 100 µM (inactive) | > 100 µM (inactive) | > 100 µM (inactive) | > 100 µM (inactive) | > 100 µM (inactive) | > 100 µM (inactive) | > 100 µM (inactive) | – | –
Cc1c(CCCl)c(Cl)n2c(nc3ccccc32)c1C#N | 1.77 µM (inactive) | 0.457 µM (active) | 1.12 µM (active) | – | 1.13 µM (inactive) | 1.51 µM (inactive) | 0.641 µM (active) | 0.568 µM (active) | 0.459 µM (active)
COC(=O)c1c(C)oc2ccc(OC(C)=O)cc12 | > 100 µM (inactive) | > 100 µM (inactive) | – | – | > 100 µM (inactive) | – | > 100 µM (inactive) | – | –
CN(C)CCNC(=O)c1cccc2ccc(-c3ccc(O)cc3)nc12 | 4.43 µM (inactive) | 0.743 µM (active) | 2.47 µM (inactive) | – | 2.08 µM (inactive) | 2.81 µM (inactive) | 6.68 µM (inactive) | – | –
[O-][S+]1CSCS1 (stereo not drawn) | 91.8 µM (inactive) | > 100 µM (inactive) | > 100 µM (inactive) | > 100 µM (inactive) | > 100 µM (inactive) | > 100 µM (inactive) | > 100 µM (inactive) | 85.9 µM (inactive) | > 100 µM (inactive)
COc1ccc(N2C(=O)[C@H]3[C@H]4CC(C(C)(C)C)CC[C@H]4c4c(n(C)c5ccccc45)[C@H]3C2=O)cc1 (stereo partly drawn) | – | > 100 µM (inactive) | < 0.01 µM (active) | > 100 µM (inactive) | > 100 µM (inactive) | > 100 µM (inactive) | – | – | > 100 µM (inactive)
CC1CC(C)C(=O)C(C(=O)CC2CC(=O)NC2=O)C1 (stereo not drawn) | > 100 µM (inactive) | > 100 µM (inactive) | > 100 µM (inactive) | > 100 µM (inactive) | > 100 µM (inactive) | > 100 µM (inactive) | > 100 µM (inactive) | 72.6 µM (inactive) | > 100 µM (inactive)
O=C(O)/C=C\C(=O)c1ccc(Cl)cc1 | 33.7 µM (inactive) | 20.2 µM (inactive) | 35.2 µM (inactive) | 27.7 µM (inactive) | 21.4 µM (inactive) | > 69.2 µM (inactive) | 36.7 µM (inactive) | > 100 µM (inactive) | 21.8 µM (inactive)
CC1(c2ccccc2)CC12C(=O)NC(=O)NC2=O (stereo not drawn) | > 100 µM (inactive) | > 100 µM (inactive) | > 100 µM (inactive) | > 100 µM (inactive) | > 100 µM (inactive) | – | > 100 µM (inactive) | – | > 100 µM (inactive)
S=C1OC2C3C4CC5C3C(O1)C1C5C4C21 (stereo not drawn) | > 100 µM (inactive) | 89.1 µM (inactive) | > 100 µM (inactive) | – | 45.6 µM (inactive) | > 100 µM (inactive) | > 100 µM (inactive) | – | > 100 µM (inactive)
C=C=C(C(=O)OC)[S+]([O-])c1ccc([N+](=O)[O-])cc1[N+](=O)[O-] (stereo not drawn) | – | 37.4 µM (inactive) | 16.2 µM (inactive) | 39.1 µM (inactive) | 21 µM (inactive) | 44.2 µM (inactive) | 26.5 µM (inactive) | 42 µM (inactive) | 16.8 µM (inactive)
O=C(c1ccc(Cl)cc1)c1ccc(OCCCOc2ccc(C(=O)c3ccc(Cl)cc3)cc2)cc1 | – | > 100 µM (inactive) | > 100 µM (inactive) | > 100 µM (inactive) | > 100 µM (inactive) | – | > 100 µM (inactive) | – | > 100 µM (inactive)
O=C(c1nc2ccc(Cl)cc2[nH]c1=O)C(O)c1ccco1 (stereo not drawn) | – | 35.5 µM (inactive) | > 100 µM (inactive) | – | 4.91 µM (inactive) | > 100 µM (inactive) | 24.5 µM (inactive) | 6.04 µM (inactive) | 42.9 µM (inactive)
COc1ccc(N(C)Sc2ccccc2)cc1 | > 100 µM (inactive) | 34.4 µM (inactive) | 47.5 µM (inactive) | 24 µM (inactive) | 36.6 µM (inactive) | 68.4 µM (inactive) | 55.6 µM (inactive) | – | 45.3 µM (inactive)
C#Cc1cccc(N2C(=O)CC(=P(c3ccccc3)(c3ccccc3)c3ccccc3)C2=O)c1 | > 100 µM (inactive) | – | > 100 µM (inactive) | 0.405 µM (active) | 19.9 µM (inactive) | – | – | – | 11.8 µM (inactive)
Cc1cc([N+](=O)[O-])c(S(=O)(=O)c2ccccc2)c([N+](=O)[O-])c1 | 17.2 µM (inactive) | 12.9 µM (inactive) | 4 µM (inactive) | 4.35 µM (inactive) | 3.14 µM (inactive) | 16.1 µM (inactive) | 17.9 µM (inactive) | 38.6 µM (inactive) | 3.66 µM (inactive)
Cc1cc2c3ccccc3n(C)c2c2c1C(=O)C=CC2=O | 17.4 µM (inactive) | 13.3 µM (inactive) | 12.7 µM (inactive) | 16.3 µM (inactive) | 6.05 µM (inactive) | – | – | – | 3.99 µM (inactive)
O=C(Nc1ccc(Br)cc1)C(=O)C(C(=O)c1ccccc1F)C1OC(=O)c2ccccc21 (stereo not drawn) | 27.8 µM (inactive) | 31 µM (inactive) | 26.2 µM (inactive) | – | 14 µM (inactive) | 26.7 µM (inactive) | 40.1 µM (inactive) | 34.8 µM (inactive) | 23.1 µM (inactive)
CCn1cnc2c(=S)nc(N)[nH]c21 | > 100 µM (inactive) | > 100 µM (inactive) | > 100 µM (inactive) | – | > 100 µM (inactive) | – | > 100 µM (inactive) | – | > 100 µM (inactive)
COc1ccc(O)c(C(=O)CCC(=O)O)c1 | > 100 µM (inactive) | > 100 µM (inactive) | > 100 µM (inactive) | > 100 µM (inactive) | > 100 µM (inactive) | – | – | > 100 µM (inactive) | > 100 µM (inactive)
CCn1c(CSc2nc(-c3ccccc3)c(-c3ccccc3)[nH]2)n[nH]c1=S | > 100 µM (inactive) | > 100 µM (inactive) | > 100 µM (inactive) | > 100 µM (inactive) | > 100 µM (inactive) | – | > 100 µM (inactive) | – | > 100 µM (inactive)
COc1cc(Br)c(/C=N/N=C(\N)NO)cc1OC | 73.3 µM (inactive) | 40.8 µM (inactive) | 25.9 µM (inactive) | 13.6 µM (inactive) | 12.4 µM (inactive) | 4.72 µM (inactive) | 5.73 µM (inactive) | 11.6 µM (inactive) | 10.9 µM (inactive)
CC12N=NN(c3ccc([N+](=O)[O-])cc3)C1(O)c1ccccc1C2=O (stereo not drawn) | – | > 100 µM (inactive) | – | > 100 µM (inactive) | > 100 µM (inactive) | – | > 100 µM (inactive) | – | > 100 µM (inactive)
N#Cc1c(-c2ccco2)cc(-c2ccc(N)cc2)[nH]c1=O | – | > 100 µM (inactive) | > 100 µM (inactive) | – | > 100 µM (inactive) | > 100 µM (inactive) | > 100 µM (inactive) | > 100 µM (inactive) | > 100 µM (inactive)
CC(=O)O[C@H]1C(=O)[C@@]2(C)C([C@H](OC(=O)c3ccccc3)[C@]3(O)C[C@H](OC(=O)[C@H](O)[C@@H](NC(=O)c4ccc(Cl)cc4)c4ccccc4)C(C)=C1C3(C)C)C1(OC(C)=O)CO[C@@H]1C[C@@H]2O (stereo partly drawn) | – | – | 0.0222 µM (active) | 0.0303 µM (active) | < 0.01 µM (active) | – | < 0.01 µM (active) | – | < 0.01 µM (active)
CN(C)CCNC(=O)c1cccc2c1nc(-c1ccccn1)c1ccccc12 | 25.3 µM (inactive) | 13.5 µM (inactive) | 11.9 µM (inactive) | – | 18.3 µM (inactive) | 21.4 µM (inactive) | – | – | –
CN(C)c1nc(N(C)C)nc(N(C)C)n1 [ALTRETAMINE] | > 150 µM (inactive) | > 140 µM (inactive) | > 132 µM (inactive) | 109 µM (inactive) | > 148 µM (inactive) | 53.3 µM (inactive) | > 150 µM (inactive) | – | > 150 µM (inactive)
